Read-outs that look alike come from different tables or passages of the source.
Experiments:
WT-HT1080 cells = assay: real-time binding control on wild type HT1080 cells; set-up: species or system human; settings: cells lacking substantial FAP expression
Description: To determine binding kinetics (association rate constant ka, dissociation rate constant kd, and thermodynamic dissociation constant KD), real-time assay systems (LigandTracer Yellow/White for radioactivity and Green with Red/NIR + and NIR + + /IR detectors for fluorescence; Ridgeview Instruments AB, Sweden) were utilized. In a 100 mm petri dish, cells or tissue sections in medium (3–4 mL total volume), are located on one side, while the radioactive or fluorescent signal is detected on the opposite, elevated side. Rotation on an inclined base in set intervals (30 s) allows continuous measurement of signal in the target (cells/tissue) against background area (no cells/tissue). Experiments were performed at room temperature, using CO2-independent medium, usually with 0.5–1% w/v bovine serum albumin, (#1ETA, Carl Roth, Germany). Association was determined through incubation with two distinct concentrations (between 1–5 and 4.5–10 nM, 60 min each, additive) for each compound. For that purpose, the same ligand preparation was typically employed for radioactive and fluorescent detection. This was followed by replacement with fresh medium and observation of dissociation for at least 2 h. Additionally, the dissociation rate constant was further investigated beyond 6 h, either using fluorescent detection or via gallium-67 (t1/2: 78.3 h). […]

[1] = target: T1, hFAP (vital hFAP-HT1080 cells) (Homo sapiens, UniProt Q12884); assay: real-time binding (LigandTracer) to vital hFAP-HT1080 cells; settings: for Bmax (%): fitted per individual curve, range; for Bmax (%) / ka / kd: room temperature; for ka / kd: global fit, 1:1 model
T1 construct: expressed in transfected cells; host or cells: HT1080 (human fibrosarcoma), lentiviral transduction
T1 sequence (Q12884 1-760): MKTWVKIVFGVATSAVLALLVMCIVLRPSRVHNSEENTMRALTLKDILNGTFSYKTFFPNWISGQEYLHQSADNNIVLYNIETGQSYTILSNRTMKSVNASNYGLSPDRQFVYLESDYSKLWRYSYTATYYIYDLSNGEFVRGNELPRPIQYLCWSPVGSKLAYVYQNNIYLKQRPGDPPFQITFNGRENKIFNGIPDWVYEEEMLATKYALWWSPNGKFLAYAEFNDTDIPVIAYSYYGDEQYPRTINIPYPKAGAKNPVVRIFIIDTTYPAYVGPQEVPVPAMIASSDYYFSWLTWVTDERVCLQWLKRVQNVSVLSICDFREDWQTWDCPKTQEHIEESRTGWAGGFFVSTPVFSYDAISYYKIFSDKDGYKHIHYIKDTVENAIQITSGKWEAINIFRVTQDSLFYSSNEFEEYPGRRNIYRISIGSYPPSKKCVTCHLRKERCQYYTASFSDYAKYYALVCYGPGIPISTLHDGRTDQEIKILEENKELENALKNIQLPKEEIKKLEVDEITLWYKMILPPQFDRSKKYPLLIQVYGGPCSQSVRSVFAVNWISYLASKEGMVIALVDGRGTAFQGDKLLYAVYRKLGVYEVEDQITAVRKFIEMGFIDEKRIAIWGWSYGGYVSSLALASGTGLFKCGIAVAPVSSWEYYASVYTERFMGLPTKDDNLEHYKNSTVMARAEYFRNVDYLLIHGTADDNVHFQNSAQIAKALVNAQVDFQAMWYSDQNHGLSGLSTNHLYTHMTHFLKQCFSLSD
Description: To determine binding kinetics (association rate constant ka, dissociation rate constant kd, and thermodynamic dissociation constant KD), real-time assay systems (LigandTracer Yellow/White for radioactivity and Green with Red/NIR + and NIR + + /IR detectors for fluorescence; Ridgeview Instruments AB, Sweden) were utilized. In a 100 mm petri dish, cells or tissue sections in medium (3–4 mL total volume), are located on one side, while the radioactive or fluorescent signal is detected on the opposite, elevated side. Rotation on an inclined base in set intervals (30 s) allows continuous measurement of signal in the target (cells/tissue) against background area (no cells/tissue). Experiments were performed at room temperature, using CO2-independent medium, usually with 0.5–1% w/v bovine serum albumin, (#1ETA, Carl Roth, Germany). Association was determined through incubation with two distinct concentrations (between 1–5 and 4.5–10 nM, 60 min each, additive) for each compound. For that purpose, the same ligand preparation was typically employed for radioactive and fluorescent detection. This was followed by replacement with fresh medium and observation of dissociation for at least 2 h. Additionally, the dissociation rate constant was further investigated beyond 6 h, either using fluorescent detection or via gallium-67 (t1/2: 78.3 h). This approach provides reliable kinetic measurements in a 1:1 interaction setting, as previously shown (Onell and Andersson [2005]).
Binding data was evaluated using TraceDrawer (1.9.2, Ridgeview Instruments AB, Sweden). Traces were imported, potential spikes (> 100% sudden signal increases over previous datapoints) removed and each trace was normalized to its own baseline (= 0%) and highest value (= 100%, typically at the end of the second association phase). This allows comparing data across experiments and ultimately global fitting, without differences, e.g. of molar activity, affecting it. Typically, at least 3 individual traces per ligand, substrate and modality were recorded. Data was fitted in TraceDrawer using a 1:1 interaction model, with/without accounting for bulk effect. A 1:1 interaction is the simplest model, as it describes the binding of a ligand at a constant concentration to the target, with each one molecule of ligand binding to one molecule of target.

[2] = tested on: hFAP-HT1080 and WT-HT1080 xenografts; assay: small-animal PET imaging of xenograft-bearing mice; format: in vivo, female NMRI-nude mice
Excerpt: Female athymic NMRI-nude mice (Rj:NMRI-Foxn1nu, Janvier Labs, France or Charles River, Germany) between 8 and 20 weeks of age were used. Subsequently, the prepared cells (1.0–2.0 × 10^6 hFAP/WT-HT1080 per animal) were subcutaneously injected into the right and left thigh, respectively. Xenograft tissue for real-time binding experiments was derived from animals injected with both target-positive and negative cells, however only showing growth of one tumor entity. When approaching endpoints, mice were anesthetized and euthanized. The tumor was quickly removed, frozen in − 45 °C 2-methylbutane and stored in sealed tubes at − 80 °C.
PET and X-ray computed tomography (CT) were performed in a dedicated small animal scanner (nanoScan PET/CT, Mediso, Hungary). Animals received a single dynamic scan corresponding to 0–2 h post injection. The radiotracer solution (8 – 20 MBq injected activity) was delivered via an i.v. catheter (lateral tail vein) and PET acquisition was started simultaneously with the injection. Blocking was performed by pre-injection (~ 5 min prior to tracer) of 100 nmol of FAPI-04. Three-dimensional list mode data were binned (400–600 keV energy window) and sorted into 35-time frames (15 × 10 s, 5 × 30 s, 5 × 60 s, 4 × 300 s, 3 × 600 s, 3 × 1200 s). Time frames were then reconstructed using the Tera-Tomo™ 3D algorithm with a voxel size of 0.4 mm and corrected for decay, scatter, and attenuation. PET data was analyzed using Rover (ABX GmbH, Germany). Three-dimensional volumes of interest (VOI) were delineated based on organs/tissues [xenografts, kidney, liver, shoulder and muscle (~ biceps brachii)] and a fixed threshold (35% of the measured maximum intensity) was applied. This yielded standardized uptake values (SUV = [MBq detected activity/mL tissue] / [MBq injected activity/g body weight], mL/g) for the chosen VOI.

[3] = from global fit of ka and kd, read-out: KD
[4] = real-time binding, live cells, read-out: binding affinity (KD)

Structure (SMILES)	binding to wild type HT1080 cells (WT-HT1080 cells)	Bmax (%) [1]	Kd [1, 3]	ka [1]	kd [1]	Kd [1, 4]	radioactivity in hFAP-HT1080 xenografts higher than in WT-HT1080 tumor (SUVmean) ([2]; SUVmean)	increase of radioactivity in the kidney compared to tracer-only animals ([2]; pre-injection of unlabeled FAPI-04, depending on timepoint)	radioactivity in hFAP-HT1080 xenografts higher than in WT-HT1080 tumor (SUVmax) ([2]; SUVmax)
CN(CCCN1CCN(C(=O)[C@H](CCCCNC(=O)CC[C@H](C(=O)[O-])N2CCN(CC(=O)[O-])CCN(CC(=O)[O-])CC2)NC(=O)CCOCCOCCOCCOCCNC(=O)CCCCCN2C(=CC=C3CCCC(C=CC4=[N+](CCCCS(=O)(=O)[O-])c5ccc(S(=O)(=O)O)cc5C4(C)C)=C3Oc3ccc(S(=O)(=O)O)cc3)C(C)(C)c3cc(S(=O)(=O)O)ccc32)CC1)c1ccc2nccc(C(=O)NCC(=O)N3CC(F)(F)C[C@H]3C#N)c2c1.[68Ga+3] [[^68Ga]Ga-NODAGA-FAP800]	lacking any binding	91–96%	0.0576 nM	411000 M⁻¹ s⁻¹	2.37e-05 s⁻¹	0.058 nM	236%	not observed	–
CN(CCCN1CCN(C(=O)[C@H](CCCCNC(=O)CC[C@H](C(=O)[O-])N2CCN(CC(=O)[O-])CCN(CC(=O)[O-])CC2)NC(=O)CCOCCOCCOCCOCCNC(=O)CCCCC[N+]2=C(C=CC=CC=C3N(CCCS(=O)(=O)O)c4ccc(S(=O)(=O)O)cc4C3(C)C)C(C)(CCCS(=O)(=O)O)c3cc(S(=O)(=O)[O-])ccc32)CC1)c1ccc2nccc(C(=O)NCC(=O)N3CC(F)(F)C[C@H]3C#N)c2c1.[68Ga+3] (stereo partly drawn) [[^68Ga]Ga-NODAGA-FAP647]	lacking any binding	84–98%	0.0138 nM	484000 M⁻¹ s⁻¹	6.67e-06 s⁻¹	0.014 nM	–	–	392%
